Laboratory results reported in PubChem BioAssay (NCI).
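Dose response: 5 concentrations. Exposure: 48 h. Format: 96-well plates. Endpoint: linear interpolation; highest concentration if not reached. At the GI50, growth is halved. TGI: concentration producing complete growth inhibition.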

How the values were obtained:
Assay in all cases: NCI tumour cell line growth inhibition, 48 h
MOLT-4 leukemia = tested on: MOLT-4 leukemia
LOX IMVI melanoma = tested on: LOX IMVI melanoma
T-47D breast = tested on: T-47D breast
HS 578T breast = tested on: HS 578T breast
UACC-257 melanoma = tested on: UACC-257 melanoma
HL-60(TB) leukemia = tested on: HL-60(TB) leukemia
HT29 colon = tested on: HT29 colon
HOP-62 NSCLC = tested on: HOP-62 NSCLC
NCI-H460 lung = tested on: NCI-H460 lung
SF-268 CNS = tested on: SF-268 CNS
OVCAR-3 ovarian = tested on: OVCAR-3 ovarian
EKVX NSCLC = tested on: EKVX NSCLC
OVCAR-8 ovarian = tested on: OVCAR-8 ovarian
A498 renal = tested on: A498 renal
HCC-2998 colon = tested on: HCC-2998 colon
HOP-92 NSCLC = tested on: HOP-92 NSCLC
OVCAR-5 ovarian = tested on: OVCAR-5 ovarian
K-562 leukemia = tested on: K-562 leukemia
NCI/ADR-RES ovarian = tested on: NCI/ADR-RES ovarian
DU-145 prostate = tested on: DU-145 prostate
UACC-62 melanoma = tested on: UACC-62 melanoma
UO-31 renal = tested on: UO-31 renal
PC-3 prostate = tested on: PC-3 prostate
SW-620 colon = tested on: SW-620 colon
786-0 renal = tested on: 786-0 renal
SF-539 CNS = tested on: SF-539 CNS
SK-OV-3 ovarian = tested on: SK-OV-3 ovarian
MDA-MB-231 breast = tested on: MDA-MB-231 breast
COLO 205 colon = tested on: COLO 205 colon
SNB-19 CNS = tested on: SNB-19 CNS
SK-MEL-5 melanoma = tested on: SK-MEL-5 melanoma
A549 NSCLC = tested on: A549 NSCLC
IGROV1 ovarian = tested on: IGROV1 ovarian
SF-295 CNS = tested on: SF-295 CNS
KM12 colon = tested on: KM12 colon
SK-MEL-28 melanoma = tested on: SK-MEL-28 melanoma
OVCAR-4 ovarian = tested on: OVCAR-4 ovarian
RPMI-8226 leukemia = tested on: RPMI-8226 leukemia
HCT-116 colon = tested on: HCT-116 colon
SN12C renal = tested on: SN12C renal
M14 melanoma = tested on: M14 melanoma
MCF7 breast = tested on: MCF7 breast
NCI-H522 lung = tested on: NCI-H522 lung
HCT-15 colon = tested on: HCT-15 colon
CCRF-CEM leukemia = tested on: CCRF-CEM leukemia
BT-549 breast = tested on: BT-549 breast
U251 CNS = tested on: U251 CNS
TK-10 renal = tested on: TK-10 renal
SR leukemia = tested on: SR leukemia
SNB-75 CNS = tested on: SNB-75 CNS
MDA-MB-435 = tested on: MDA-MB-435
CAKI-1 renal = tested on: CAKI-1 renal
NCI-H226 lung = tested on: NCI-H226 lung
RXF 393 renal = tested on: RXF 393 renal
SK-MEL-2 melanoma = tested on: SK-MEL-2 melanoma
ACHN renal = tested on: ACHN renal

Compound: Cc1nc2ccccn2c1NC(=O)NNC(=S)Nc1ccc(Cl)cc1
- GI50 (MOLT-4 leukemia): > 100 µM
- TGI (MOLT-4 leukemia): > 100 µM
- GI50 (LOX IMVI melanoma): > 100 µM
- TGI (LOX IMVI melanoma): > 100 µM
- GI50 (T-47D breast): > 100 µM
- TGI (T-47D breast): > 100 µM
- GI50 (HS 578T breast): > 100 µM
- TGI (HS 578T breast): > 100 µM
- GI50 (UACC-257 melanoma): > 100 µM
- TGI (UACC-257 melanoma): > 100 µM
- GI50 (HL-60(TB) leukemia): > 100 µM
- TGI (HL-60(TB) leukemia): > 100 µM
- GI50 (HT29 colon): > 100 µM
- TGI (HT29 colon): > 100 µM
- GI50 (HOP-62 NSCLC): > 100 µM
- TGI (HOP-62 NSCLC): > 100 µM
- GI50 (NCI-H460 lung): > 100 µM
- TGI (NCI-H460 lung): > 100 µM
- GI50 (SF-268 CNS): > 100 µM
- TGI (SF-268 CNS): > 100 µM
- GI50 (OVCAR-3 ovarian): > 100 µM
- TGI (OVCAR-3 ovarian): > 100 µM
- GI50 (EKVX NSCLC): > 100 µM
- TGI (EKVX NSCLC): > 100 µM
- GI50 (OVCAR-8 ovarian): > 100 µM
- TGI (OVCAR-8 ovarian): > 100 µM
- GI50 (A498 renal): > 100 µM
- TGI (A498 renal): > 100 µM
- GI50 (HCC-2998 colon): > 100 µM
- TGI (HCC-2998 colon): > 100 µM
- GI50 (HOP-92 NSCLC): > 100 µM
- TGI (HOP-92 NSCLC): > 100 µM
- GI50 (OVCAR-5 ovarian): > 100 µM
- TGI (OVCAR-5 ovarian): > 100 µM
- GI50 (K-562 leukemia): > 100 µM
- TGI (K-562 leukemia): > 100 µM
- GI50 (NCI/ADR-RES ovarian): > 100 µM
- TGI (NCI/ADR-RES ovarian): > 100 µM
- GI50 (DU-145 prostate): > 100 µM
- TGI (DU-145 prostate): > 100 µM
- GI50 (UACC-62 melanoma): > 100 µM
- TGI (UACC-62 melanoma): > 100 µM
- GI50 (UO-31 renal): > 100 µM
- TGI (UO-31 renal): > 100 µM
- GI50 (PC-3 prostate): > 100 µM
- TGI (PC-3 prostate): > 100 µM
- GI50 (SW-620 colon): > 100 µM
- TGI (SW-620 colon): > 100 µM
- GI50 (786-0 renal): > 100 µM
- TGI (786-0 renal): > 100 µM
- GI50 (SF-539 CNS): > 100 µM
- TGI (SF-539 CNS): > 100 µM
- GI50 (SK-OV-3 ovarian): > 100 µM
- TGI (SK-OV-3 ovarian): > 100 µM
- GI50 (MDA-MB-231 breast): 67.8 µM
- TGI (MDA-MB-231 breast): > 100 µM
- GI50 (COLO 205 colon): > 100 µM
- TGI (COLO 205 colon): > 100 µM
- GI50 (SNB-19 CNS): > 100 µM
- TGI (SNB-19 CNS): > 100 µM
- GI50 (SK-MEL-5 melanoma): > 100 µM
- TGI (SK-MEL-5 melanoma): > 100 µM
- GI50 (A549 NSCLC): > 100 µM
- TGI (A549 NSCLC): > 100 µM
- GI50 (IGROV1 ovarian): > 100 µM
- TGI (IGROV1 ovarian): > 100 µM
- GI50 (SF-295 CNS): > 100 µM
- TGI (SF-295 CNS): > 100 µM
- GI50 (KM12 colon): > 100 µM
- TGI (KM12 colon): > 100 µM
- GI50 (SK-MEL-28 melanoma): > 100 µM
- TGI (SK-MEL-28 melanoma): > 100 µM
- GI50 (OVCAR-4 ovarian): > 100 µM
- TGI (OVCAR-4 ovarian): > 100 µM
- GI50 (RPMI-8226 leukemia): > 100 µM
- TGI (RPMI-8226 leukemia): > 100 µM
- GI50 (HCT-116 colon): > 100 µM
- TGI (HCT-116 colon): > 100 µM
- GI50 (SN12C renal): > 100 µM
- TGI (SN12C renal): > 100 µM
- GI50 (M14 melanoma): > 100 µM
- TGI (M14 melanoma): > 100 µM
- GI50 (MCF7 breast): > 100 µM
- TGI (MCF7 breast): > 100 µM
- GI50 (NCI-H522 lung): > 100 µM
- TGI (NCI-H522 lung): > 100 µM
- GI50 (HCT-15 colon): > 100 µM
- TGI (HCT-15 colon): > 100 µM
- GI50 (CCRF-CEM leukemia): > 100 µM
- TGI (CCRF-CEM leukemia): > 100 µM
- GI50 (BT-549 breast): > 100 µM
- TGI (BT-549 breast): > 100 µM
- GI50 (U251 CNS): > 100 µM
- TGI (U251 CNS): > 100 µM
- GI50 (TK-10 renal): > 100 µM
- TGI (TK-10 renal): > 100 µM
- GI50 (SR leukemia): 95.7 µM
- TGI (SR leukemia): > 100 µM
- GI50 (SNB-75 CNS): > 100 µM
- TGI (SNB-75 CNS): > 100 µM
- GI50 (MDA-MB-435): > 100 µM
- TGI (MDA-MB-435): > 100 µM
- GI50 (CAKI-1 renal): > 100 µM
- TGI (CAKI-1 renal): > 100 µM
- GI50 (NCI-H226 lung): > 100 µM
- TGI (NCI-H226 lung): > 100 µM
- GI50 (RXF 393 renal): > 100 µM
- TGI (RXF 393 renal): > 100 µM
- GI50 (SK-MEL-2 melanoma): > 100 µM
- TGI (SK-MEL-2 melanoma): > 100 µM
- GI50 (ACHN renal): > 100 µM
- TGI (ACHN renal): > 100 µM
